{"source": "patent EP0174833A2", "about": "“Triazoloquinoline derivatives” (MAY & BAKER LIMITED, priority 1984, dated 1986)", "data": [{"system": "mouse macrophage cells", "assay": "reduction of the inhibition of migration of incubated macrophage cells after oral dosing (similar to Likhite et al.)", "assay_type": "in vivo", "conditions": "mice, twice administered orally, one hour before and four hours after antigen, dose each time that would reduce by 50% the inhibition of macrophage migration", "protocol": "For example, from tests in mice it was calculated that compounds of formula I, when twice administered orally, one hour before and four hours after the administration of antigen, each time at the doses shown in the following Table I, would reduce by 50% the inhibition of migration of incubated mouse macrophage cells measured in a manner similar to that described by Likhite et al., Cellular Immunology, Vol. 5, 1972, page 377. This is a measure of antagonism or reduction of the levels of lymphokines and is indicative of utility in the treatment of arthritic patients.", "units": {"ED50": "mg/kg"}, "values": [{"smiles": "CCOC(=O)C(=CNc1ccc2c(c1)c(C)cc1nnc(-c3ccc(OC)cc3)n12)C(=O)OCC", "note": "[C, 7-[2,2-bis(ethoxycarbonyl)ethen-l-ylamino]-1-(4-methoxyphenyl)-5-methyl-1,2,4-triazolo-[4,3-a]quinoline]", "ED50": "< 10"}, {"smiles": "CCOC(=O)C(=CNc1ccc2c(c1)c(C)cc1nnc(-c3ccccc3)n12)C(=O)OCC", "note": "[A, 7-[2,2-bis(ethoxycarbonyl)ethen-l-ylamino]-5-methyl-1-phenyl-1,2,4-triazolo[4,3-a]quinoline]", "ED50": 7}]}, {"system": "lipoxygenase", "assay": "lipoxygenase inhibition in vitro", "assay_type": "biochemical", "conditions": "concentration 0.0001M, 100 µM", "units": {"% inhibition of lipoxygenase": "%"}, "values": [{"smiles": "CCOC(=O)C(=CNc1ccc2c(c1)c(C)cc1nnc(-c3ccc(C)cc3)n12)C(=O)OCC", "note": "[B, 7-[2,2-bis(ethoxycarbonyl)ethen-l-ylamino]-5-methyl-l-(4-methylphenyl)-1,2,4-triazolo-[4,3-a]quinoline]", "% inhibition of lipoxygenase": 100}, {"smiles": "CCOC(=O)C(=CNc1ccc(-c2nnc3cc(C)c4ccccc4n23)cc1)C(=O)OCC", "note": "[E, 1-[4-{2,2-bis(ethoxycarbonyl)ethen-1-yl-amino}phenyl]-5-methyl-1,2,4-triazolo[4,3-a]-quinoline]", "% inhibition of lipoxygenase": 50}, {"smiles": "CCOC(=O)C(=CNc1ccc2c(c1)c(C)cc1nnc(-c3ccccc3)n12)C(=O)OCC", "note": "[A, 7-[2,2-bis(ethoxycarbonyl)ethen-l-ylamino]-5-methyl-1-phenyl-1,2,4-triazolo[4,3-a]quinoline]", "% inhibition of lipoxygenase": 100}, {"smiles": "CCOC(=O)C(=CNc1ccc2c(c1)c(C)cc1nnc(-c3ccc(C(C)(C)C)cc3)n12)C(=O)OCC", "note": "[D, 1-(4-tert-butylphenyl)-7-[2,2-bis(ethoxycarbonyl)ethen-1-ylamino)-5-methyl-1,2,4-triazolo[4,3-a]quinoline]", "% inhibition of lipoxygenase": 98}]}]}
